Literature values, collected in patent US9114602B2, “Process for making lithographic printing plate” (FUJIFILM Corporation, priority 2011, dated 2015).

details: at 20° C.

solubility in water	Structure (SMILES)
2.7 g/100 mL	CC(C)CCO [3-methyl-1-butanol]
5.6 g/100 mL	CC(C)C(C)O (centres unmarked) [3-methyl-2-butanol]
2.0 g/100 mL	CC(C)CC(C)O (centres unmarked) [4-methyl-2-pentanol]
1.0 g/100 mL	CCCCCCOCCO [Ethylene glycol mono-n-hexyl ether, reference compound]
2.7 g/100 mL	CCCCCO [Example 1-pentanol, 1-pentanol]
4.5 g/100 mL	CCCC(C)O (centres unmarked) [Example 2-pentanol, 2-pentanol]
4.0 g/100 mL	CCCC(C)=O [Example 2-pentanone, 2-pentanone]
5.2 g/100 mL	CCC(O)CC [Example 3-pentanol, 3-pentanol]
4.0 g/100 mL	OCc1ccccc1 [benzyl alcohol]
1.7 g/100 mL	CCC(=O)CC [diethyl ketone]
6.5 g/100 mL	CCCCOCCOCCOC(C)=O [diethylene glycol monobutyl ether acetate]
2.7 g/100 mL	OCCOc1ccccc1 [ethylene glycol monophenyl ether]
3.5 g/100 mL	CC(C)(C)CO [neopentyl alcohol]
1.6 g/100 mL	CCCOC(C)=O [propyl acetate]
4.4 g/100 mL	CCCCOCC(C)O (centres unmarked) [propylene glycol mono-n-butyl ether]

Structure (SMILES)	solubility in water
CCC(C)CO (centres unmarked) [2-methyl-1-butanol]	3.0 g/100 mL
CC(=O)OC(C)C [isopropyl acetate]	4.3 g/100 mL
